Assay results as given in patent US9113629B2, “4-amino-6-(4-substituted-phenyl)-picolinates and 6-amino-2-(4-substituted-phenyl)-pyrimidine-4-carboxylates and their use as herbicides” (DOW AGROSCIENCES LLC, priority 2013, dated 2015).
Read-outs that look alike come from different tables or passages of the source.

Columns and labels:
[1] = system: Key Broadleaf Weed and Crop Species; assay: Post-emergent Test II herbicidal activity (Table 5); type: in vivo; settings: post-emergence, 336 h, post-emergent, 14 days after application; for pest or weed control at 70 g/ha: 70 g ai/ha; for pest or weed control at 140 g/ha: 140 g ai/ha
In short: (§1)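 Scoring: visual, 0–100% injury at 14 d versus untreated. Treatment: overhead track spray, 187 L/ha, onto plants at the first–second true leaf stage. Growth: greenhouse, ~15 h light, 23–29 °C day, 22–28 °C night.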

[2] = system: Key Grass and Sedge Weeds as well as Grass Crops; assay: Post-emergent Test II herbicidal activity (Table 6); type: in vivo; settings: post-emergence, 336 h; for pest or weed control at 70 g/ha: application rate 70 g ai/ha; for pest or weed control at 140 g/ha: application rate 140 g ai/ha
In short: as §1

[3] = ABUTH: velvetleaf (Abutilon theophrasti), read-out: Visual Growth Reduction (%) 14 Days After Application ABUTH
[4] = AMARE: redroot pigweed (Amaranthus retroflexus), read-out: Visual Growth Reduction (%) 14 Days After Application AMARE
[5] = BRSNN: oilseed-rape, canola (Brassica napus), read-out: Visual Growth Reduction (%) 14 Days After Application BRSNN
[6] = CHEAL: lambsquarters (Chenopodium album), read-out: Visual Growth Reduction (%) 14 Days After Application CHEAL
[7] = EPHHL: wild poinsettia (Euphorbia heterophylla), read-out: Visual Growth Reduction (%) 14 Days After Application EPHHL
[8] = HELAN: sunflower (Helianthus annuus), read-out: Visual Growth Reduction (%) 14 Days After Application HELAN
[9] = VIOTR: wild pansy (Viola tricolor), read-out: Visual Growth Reduction (%) 14 Days After Application VIOTR
[10] = CYPES: yellow nutsedge (Cyperus esculentus), read-out: Visual Growth Reduction (%) 14 Days After Application, CYPES
[11] = DIGSA: crabgrass (Digitaria sanguinalis), read-out: Visual Growth Reduction (%) 14 Days After Application, DIGSA
[12] = ECHCG: barnyardgrass (Echinochloa crus-galli), read-out: Visual Growth Reduction (%) 14 Days After Application, ECHCG
[13] = ORYSA: rice (Oryza sativa), read-out: Visual Growth Reduction (%) 14 Days After Application, ORYSA
[14] = SETFA: giant foxtail (Setaria faberi), read-out: Visual Growth Reduction (%) 14 Days After Application, SETFA
[15] = SORVU: grain sorghum (Sorghum vulgare), read-out: Visual Growth Reduction (%) 14 Days After Application, SORVU
[16] = TRZSS (wheat, Triticum aestivum), read-out: Visual Growth Reduction (%) 14 Days After Application, TRZSS
[17] = ZEAMX: maize, corn (Zea mays), read-out: Visual Growth Reduction (%) 14 Days After Application, ZEAMX

Work on `Nc1cc(-c2c(F)cc(I)c(F)c2F)nc(C(=O)O)c1Cl` [Compound 68] yielded a pest or weed control at 70 g/ha [1, 3] of 85 to 94%, a pest or weed control at 140 g/ha [1, 3] of 85 to 94% and a pest or weed control at 70 g/ha [1, 4] of 95 to 100%. It also gave a pest or weed control at 140 g/ha [1, 4] of 95 to 100%, a pest or weed control at 70 g/ha [1, 5] of 95 to 100% and a pest or weed control at 140 g/ha [1, 5] of 95 to 100%. It also gave a pest or weed control at 70 g/ha [1, 6] of 95 to 100%, a pest or weed control at 140 g/ha [1, 6] of 95 to 100% and a pest or weed control at 70 g/ha [1, 7] of 95 to 100%. For the same molecule, the pest or weed control at 140 g/ha [1, 7] was 95 to 100%, the pest or weed control at 70 g/ha [1, 8] was 60 to 74% and the pest or weed control at 140 g/ha [1, 8] was 0 to 29%. For the same molecule, the pest or weed control at 70 g/ha [1, 9] was 95 to 100%, the pest or weed control at 140 g/ha [1, 9] was 95 to 100% and the pest or weed control at 70 g/ha [2, 10] was 95 to 100%. The pest or weed control at 140 g/ha [2, 10] was 95 to 100%, the pest or weed control at 70 g/ha [2, 11] was 75 to 84% and the pest or weed control at 140 g/ha [2, 11] was 75 to 84%. For the same molecule, the pest or weed control at 70 g/ha [2, 12] was 85 to 94%, the pest or weed control at 140 g/ha [2, 12] was 75 to 84% and the pest or weed control at 70 g/ha [2, 13] was 45 to 59%. It also gave a pest or weed control at 140 g/ha [2, 13] of 45 to 59%, a pest or weed control at 70 g/ha [2, 14] of 85 to 94% and a pest or weed control at 140 g/ha [2, 14] of 75 to 84%. For the same molecule, the pest or weed control at 70 g/ha [2, 15] was 95 to 100%, the pest or weed control at 140 g/ha [2, 15] was 95 to 100% and the pest or weed control at 70 g/ha [2, 16] was 30 to 44%. For the same molecule, the pest or weed control at 140 g/ha [2, 16] was 45 to 59%, the pest or weed control at 70 g/ha [2, 17] was 0 to 29% and the pest or weed control at 140 g/ha [2, 17] was 75 to 84%. The melting point was 170.1 to 172.6 °C.
